± gives the expanded uncertainty stated by the source.
Key:
[1] = molar heat capacity at constant pressure; conditions: 101 kPa, Liquid, DSC
[2] = molar heat capacity at constant pressure; mn = molality of the nth substance listed, in mol/kg; conditions: 101 kPa, Liquid, DSC, m2 = 0

Row | molar heat capacity at constant pressure ([1]; 278.15 K) | molar heat capacity at constant pressure ([1]; 283.15 K) | molar heat capacity at constant pressure ([1]; 288.15 K) | molar heat capacity at constant pressure ([1]; 293.15 K) | molar heat capacity at constant pressure ([1]; 298.15 K) | molar heat capacity at constant pressure ([1]; 308.15 K) | molar heat capacity at constant pressure ([1]; 318.15 K) | molar heat capacity at constant pressure ([1]; 328.15 K) | molar heat capacity at constant pressure ([1]; 333.15 K) | molar heat capacity at constant pressure ([2]; 278.15 K) | molar heat capacity at constant pressure ([2]; 283.15 K) | molar heat capacity at constant pressure ([2]; 288.15 K) | molar heat capacity at constant pressure ([2]; 293.15 K) | molar heat capacity at constant pressure ([2]; 298.15 K) | molar heat capacity at constant pressure ([2]; 308.15 K) | molar heat capacity at constant pressure ([2]; 318.15 K) | molar heat capacity at constant pressure ([2]; 328.15 K) | molar heat capacity at constant pressure ([2]; 333.15 K) | SMILES
1 | 471.7 ± 18 J/K/mol | 473.61 ± 18 J/K/mol | 475.62 ± 18 J/K/mol | 477.67 ± 19 J/K/mol | 479.72 ± 19 J/K/mol | 484.23 ± 19 J/K/mol | 489.08 ± 19 J/K/mol | 494.37 ± 19 J/K/mol | 497.05 ± 19 J/K/mol |  |  |  |  |  |  |  |  |  | CCCCCOCCOCCOCCO [ethanol, 2-[2-[2-(pentyloxy)ethoxy]ethoxy]-]
2 | 75.75 ± 2.9 J/K/mol | 75.58 ± 2.9 J/K/mol | 75.47 ± 2.9 J/K/mol | 75.39 ± 2.9 J/K/mol | 75.35 ± 2.9 J/K/mol | 75.32 ± 2.9 J/K/mol | 75.34 ± 2.9 J/K/mol | 75.4 ± 2.9 J/K/mol | 75.48 ± 2.9 J/K/mol |  |  |  |  |  |  |  |  |  | O [water]
3 |  |  |  |  |  |  |  |  |  | 75.75 ± 2.9 J/K/mol | 75.58 ± 2.9 J/K/mol | 75.47 ± 2.9 J/K/mol | 75.39 ± 2.9 J/K/mol | 75.35 ± 2.9 J/K/mol | 75.32 ± 2.9 J/K/mol | 75.34 ± 2.9 J/K/mol | 75.4 ± 2.9 J/K/mol | 75.48 ± 2.9 J/K/mol | O [water] + CCCCCOCCOCCOCCO

Source: the NIST ThermoML archive (doi:10.1016/j.fluid.2016.10.005)
